Reference: patent publication US9381171B2 (priority 2013, dated 2016)

Legend:
[1] = test system: SOL muscle of the hind-limb of a mouse; settings: mouse fed 4 mg/kg dexamethasone and 2 mg/kg dapsone for 3 weeks, 0.2 Hz (100 V)
Protocol: (§1) The SOL muscle was separated from a female mouse (which weighs about 20 g) aged about 3 months. The mouse was anesthetized by sodium pentobarbital injection (100 mg/kg body weight). The SOL muscle, which is a type I muscle, was separated by paying attention to each hind-limb of the mouse while maintaining ligaments from both hind-limbs without damaging the SOL muscle. Then, the separated SOL muscle was put in an oxygen-treated Ringer's solution (118 mM NaCl, 4.75 mM KCl, 2.5 mM CaCl2, 1.18 mM MgSO4, 1.18 mM NaH2PO4, 24.8 mM NaHCO3, 10 mM glucose, and 0.02 g/l tubocurarine chloride, 25° C., pH 7.4) (Sigma Aldrich), set, and stabilized. One side of the separated SOL muscle was filled with the Ringer's solution to fix the separated SOL muscle on a tissue bath with smooth oxygen supply while the other side of the separated SOL muscle was fixed on a FT03 isometric force transducer (Grass Instruments, West Warwick, USA). Here, the muscle twitching was adjusted according to the intensity of the electric field stimulation. […] Here, the muscle contractility value (mN) represents the muscle twitch contraction.

Atrogin-1 = Atrogin-1 protein level by western blot in C2C12 cells (FIG. 5B); format: cell-based, mouse; settings: C2C12, 0.1, 1 or 20 μM dapsone and 1 μM dexamethasone; concentration-dependent
Protocol: (§2) A C2C12 cell line (mouse gastrocnemius muscle, ATCC®CRL-1772™) was inoculated in a 10% FBS/DMEM culture medium in a 60 mm culture dish. When the cells were grown to about 70% confluency in a 5% CO2 incubator at a temperature of 37° C., the culture medium was changed to a 2% FBS/DMEM culture medium to allow complete differentiation after incubation for 4 days. The C2C12 cell line is a mouse myoblast cell line obtained through continuous culture of myoblasts that are cultured from the gastrocnemius muscle of C3H mice. […] Here, 1 μM of dexamethasone was added thereto and cultured together for 24 hours as described above.
(§3) After the medium was removed from the culture and the cells were collected therefrom, 500 μl of an RIPA lysis buffer was added for lysing the cells. Then, the resulting lysates were subjected to electrophoresis and western blot analysis with respect to Atrogin-1, MuRF-1, and α-tubulin. A primary antibody used in the western blot analysis was a rabbit anti-Atrogin-1 antibody (ECM Bioscience), a MuRF-1 antibody (GeneTax), and α-tubulin (Cell Signaling Technology, USA) antibody, and a secondary antibody used in the western blot analysis was an HRP-conjugated anti-rabbit antibody (Jackson ImmunoResearch).

[2] = test system: phosphorylated FOXO1-p (Ser256); test: Factors of atrophy: western blot of FOXO1-p in C2C12 cells (FIG. 4); format: cell-based, mouse; settings: C2C12, 0.1, 1, 20 μM dapsone 12 hours, then 1 μM dexamethasone 2 hours
Protocol: as §2, with “2” for “24”
(§4) After the medium was removed from the culture and the cells were collected therefrom, 500 μl of an RIPA lysis buffer (including 20 mM Tris-HCl (pH 7.5), 150 mM NaCl, 1 mM Na2EDTA, 1 mM EGTA, 1% NP-40, 1% sodium deoxycholate, 2.5 mM sodium pyrophosphate, 1 mM beta-glycerophosphate, 1 mM Na3VO4, and 1 μg/ml leupeptin) was added for lysing the cells. […]

MURF-1 mRNA = test: MuRF-1 mRNA level by real time PCR in C2C12 cells (FIG. 5A); format: cell-based, mouse; settings: C2C12, 20 μM dapsone and 1 μM dexamethasone, 24 hours; normalized to GAPDH mRNA
Protocol: (§5) Here, 1 μM of dexamethasone was added thereto and incubated for 24 hours. Then, the amounts of the expressed mRNA of the Atrogin-1 and MuRF-1 among the C2C12 cells were confirmed. Here, the complete RNA was separated by using a Trizol reagent (Invitrogen). The analysis of the mRNAs of Atrogin-1 and MuRF-1 was performed by using a real time […] instrument, BioRad), which is a device for measuring reverse transcription and SYBR Green. The resulting amounts then normalize to the amount of GAPDH mRNA. The amplification of Atrogin-1, MuRF-1, and GAPDH mRNAs was performed by using an oligonucleotide primer set of SEQ ID NOS: 1 and 2, an oligonucleotide primer set of SEQ ID NOS: 3 and 4, and an oligonucleotide primer set of SEQ ID NOS: 5 and 6.

Atrogin-1 mRNA = Atrogin-1 mRNA level by real time PCR in C2C12 cells (FIG. 5A); format: cell-based, mouse; settings: C2C12, 20 μM dapsone and 1 μM dexamethasone, 24 hours; normalized to GAPDH mRNA
Protocol: as §5

[3] = test system: SOL muscle of the hind-limb of a mouse; test: Muscle fatigability of SOL muscle separated from fed mice (FIG. 7); format: in vivo; settings: 150 Hz, 100 V, stimulation every 2 seconds for 30 seconds
Protocol: as §1

[4] = test system: phosphorylated Akt-p (Ser473); test: Factors of atrophy: western blot of Akt-p in C2C12 cells (FIG. 4); format: cell-based, mouse; settings: C2C12, 0.1, 1, 20 μM dapsone 12 hours, then 1 μM dexamethasone 2 hours; concentration-dependent
Protocol: as §2, with “2” for “24”
as §4

MURF-1 = test: MuRF-1 protein level by western blot in C2C12 cells (FIG. 5B); format: cell-based, mouse; settings: C2C12, 0.1, 1 or 20 μM dapsone and 1 μM dexamethasone; concentration-dependent
Protocol: as §2, §3

For `Nc1ccc(S(=O)(=O)c2ccc(N)cc2)cc1` [dapsone, 4-[(4-aminobenzene)sulfonyl]aniline], the “increase of twitch contractility compared with mouse fed on dexamethasone” value [1] was 43.7%, the “protein level of Atrogin-1” value (Atrogin-1) was “significantly decreased” and the “amount of the FOXO1-p protein” value [2] was “decreased”. For the same compound, the “mRNA level of MURF-1” value (MURF-1 mRNA) was “significantly decreased”, the “mRNA level of Atrogin-1” value (Atrogin-1 mRNA) was “significantly decreased” and the “decrease of muscle fatigability compared with intake of only dexamethasone” value ([3]; intake of both dexamethasone and dapsone) was 20.3%. For the same compound, the “amount of the Akt-p” value [4] was “increased” and the “protein level of MURF-1” value (MURF-1) was “significantly decreased”.
For `C[C@@H]1C[C@H]2[C@@H]3CCC4=CC(=O)C=C[C@]4(C)[C@@]3(F)[C@@H](O)C[C@]2(C)[C@@]1(O)C(=O)CO` [dexamethasone], the “degree of the muscle fatigability” value ([3]; upon intake of dexamethasone) was “increased”.
